Results reported in patent publication US6265423A, “Aromatic polycyclic retinoid-type derivatives, method for preparing same, and use thereof for making pharmaceutical and cosmetic compositions” (priority 1996, dated 2001).
Like-named read-outs stand apart in the source and are kept apart here.

Tests used:
RARβ-ERcassette = assay: Transactivation, chimerical receptor RARβ-ERcassette (HeLa); type: cell-based; details: TTNPB 10^-8 M = 100
How it was run: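 HeLa cells transiently co-transfected (calcium phosphate) with RAR whose DNA-binding C domain is replaced by the oestrogen receptor's, an ERE-luciferase reporter, and CMV-β-galactosidase as transfection control. Compounds applied 24 h post-transfection for 16 h; luciferase read-out.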

[1] = tested on: human mammary tumoral lineage T-47D; assay: Clonogenic test (soft agar), growth of cellular colonies; type: cell-based; details: for activity at 0.1 µM / activity at 0.01 µM / activity at 0.001 µM / activity at 0.0001 µM: 504 h, read-out: mean number of cellular colonies in relation to control; for effect on growth of cellular colonies (in words): soft agar
How it was run: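 Colony counts (clones over 100 μm², MTT-stained for at least 3 h) are expressed as a percentage of the untreated control. T-47D cells grew anchorage-independently between a 0.5% agar base and a 0.3% agar top layer. Cultures were incubated for 21 days after treatment at 37 °C with 5% CO2.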

[2] = tested on: RAR-ERcassettes (RARα, RARβ, RARγ); assay: Chimerical receptors RAR-ERcassettes, overall profile; type: cell-based
Source text: (§1) The HeLa cells are co-transfected by a plasmid which codes for a retinoic receptor in which the C domain of bonding to the DNA is substituted by that of the receptor to RE oestrogens, and a plasmid which places the expression of the luciferase under the control of an ERE (Element of Response to Oestrogens). The expressed chimerical receptors are designated as RARα-ERcassette, RARβ-ERcassette, RARγ-ERcassette and RXRα-ERcassette. The A, B, D, E and F regions of the natural receptor are preserved as well as the transcriptional co-operation between the activation domains AF-1 and AF-2. These transitory transfection experiments follow the method of co-precipitation to calcium phosphate. The HeLa cells are co-transfected by […] of plasmid coding for the chimerical receptor, […] of reporter plasmid and […] of expression vector CMV-β-galactosidase used as an internal control of transfection. 24 hours after the transfection, the cells are incubated for 16 hours with the different effectors.
(§2) In this type of chimerical receptor, the C domain of bonding to the DNA of RAR is substituted by that of the receptor to the RE oestrogens. The protein obtained is close to the natural RAR receptor and preserves the transcriptional properties of the AF-1 and AF-2 domains. It modulates the transcription by means of an ERE. This RAR-ERcassette model allows one to observe a transcriptional response to a more physiological ligand.

RARα-ERcassette = assay: Transactivation, chimerical receptor RARα-ERcassette (HeLa); type: cell-based; details: TTNPB 10^-8 M = 100
Source text: as §1, §2

[3] = tested on: A549 human pulmonary cancer cells; assay: MTT test, proliferation of A549; type: cell-based; details: for activity at 0.01 µM / activity at 1 µM / activity at 100 µM: Homo sapiens, read-out: level of proliferation; for effect on cellular increase, A549 (in words): MTT test
[4] = tested on: AP-1, MTLN lineage (MCF-7); assay: Anti-AP-1 effect, MTLN lineage activated by TPA; type: cell-based, human; details: for inhibition at 0.01 µM / inhibition at 0.1 µM: Homo sapiens, MCF7, read-out: anti-AP-1 effect, inhibition
How it was run: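 Percent inhibition of AP-1-driven luciferase after basal activity deduction, expressed as a range across repeat experiments. Cells: MTLN, an MCF-7 line stably transfected with p(TRE)3-tk-Luc and stimulated with 10^-7 M TPA; tests in duplicate.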

RARγ-ERcassette = assay: Transactivation, chimerical receptor RARγ-ERcassette (HeLa); type: cell-based; details: TTNPB 10^-8 M = 100
Source text: as §1, §2

Gal4-RARβ = assay: Transactivation, chimerical receptor Gal4-RARβ (transitory transfection of HeLa); type: cell-based; details: 100% = TTNPB 10^-8 M
[5] = Homo sapiens, T47D, T-47D, 10^-8 M, 21 days, control = 100%
[6] = Homo sapiens, T47D, T-47D, 10^-9 M, 21 days, control = 100%
[7] = Homo sapiens, T47D, T-47D, 10^-10 M, 21 days, control = 100%
[8] = A549, 10^-4 M, 72 h, control = 100%
[9] = A549, 10^-6 M, 72 h, control = 100%
[10] = A549, 10^-8 M, 72 h, control = 100%

CC(C=C/C=C(C)\C=C\C1=C(C)CCCC1(C)C)=CC(=O)O [CB13407, 9-cis retinoic acid, reference compound]
RAR-ERcassette RARβ transactivation (RARβ-ERcassette; 10^-6 M): 369%
RAR-ERcassette RARβ transactivation (RARβ-ERcassette; 10^-7 M): 212%
RAR-ERcassette RARβ transactivation (RARβ-ERcassette; 10^-8 M): 94%
RAR-ERcassette RARβ transactivation (RARβ-ERcassette; 10^-9 M): 16%
activity at 0.1 µM ([1]; Homo sapiens, T47D, T-47D, 10^-7 M, 21 days, control = 100%): 6.7%
activity at 0.01 µM [1, 5]: 45.6%
activity at 0.001 µM [1, 6]: 52.8%
activity at 0.0001 µM [1, 7]: 54.9%
effect on growth of cellular colonies (in words) ([1]; T-47D): significant and dose dependent inhibiting activity
RAR-ERcassette profile (in words) [2]: induce an over-expression of luciferase in comparison to the induction brought about by a synthetic compound (TTNPB)
RAR-ERcassette RARα transactivation (RARα-ERcassette; 10^-6 M): 348%
RAR-ERcassette RARα transactivation (RARα-ERcassette; 10^-7 M): 187%
RAR-ERcassette RARα transactivation (RARα-ERcassette; 10^-8 M): 60%
RAR-ERcassette RARα transactivation (RARα-ERcassette; 10^-9 M): 7%
activity at 0.01 µM ([3]; A549, 72 h): 104%
activity at 1 µM ([3]; A549, 72 h): 102%
activity at 100 µM ([3]; A549, 72 h): 38%
inhibition at 0.01 µM [4]: 30 to 37%
RAR-ERcassette RARγ transactivation (RARγ-ERcassette; 10^-6 M): 157%
RAR-ERcassette RARγ transactivation (RARγ-ERcassette; 10^-7 M): 108%
RAR-ERcassette RARγ transactivation (RARγ-ERcassette; 10^-8 M): 56%
RAR-ERcassette RARγ transactivation (RARγ-ERcassette; 10^-9 M): 11%

CC1=C(/C=C/C(C)=C/C=C/C(C)=C/C(=O)O)C(C)(C)CCC1 [CB16178, all-trans retinoic acid, reference compound]
RAR-ERcassette RARβ transactivation (RARβ-ERcassette; 10^-6 M): 475%
RAR-ERcassette RARβ transactivation (RARβ-ERcassette; 10^-7 M): 270%
RAR-ERcassette RARβ transactivation (RARβ-ERcassette; 10^-8 M): 128%
RAR-ERcassette RARβ transactivation (RARβ-ERcassette; 10^-9 M): 93%
RAR-ERcassette profile (in words) [2]: induce an over-expression of luciferase in comparison to the induction brought about by a synthetic compound (TTNPB)
RAR-ERcassette RARα transactivation (RARα-ERcassette; 10^-6 M): 443%
RAR-ERcassette RARα transactivation (RARα-ERcassette; 10^-7 M): 249%
RAR-ERcassette RARα transactivation (RARα-ERcassette; 10^-8 M): 127%
RAR-ERcassette RARα transactivation (RARα-ERcassette; 10^-9 M): 65%
activity at 0.01 µM ([3]; A549, 72 h): 78.8%
activity at 1 µM ([3]; A549, 72 h): 89.2%
activity at 100 µM ([3]; A549, 72 h): 22.3%
effect on cellular increase, A549 (in words) [3]: inhibit the proliferation of the A549 lineage at 10^-6 M and 10^-8 M
inhibition at 0.01 µM [4]: 22 to 33%
inhibition at 0.1 µM [4]: 28 to 44%
GAL4-RAR RARβ transactivation (Gal4-RARβ; 10^-6 M): 92%
GAL4-RAR RARβ transactivation (Gal4-RARβ; 10^-7 M): 93%
GAL4-RAR RARβ transactivation (Gal4-RARβ; 10^-8 M): 104%
RAR-ERcassette RARγ transactivation (RARγ-ERcassette; 10^-6 M): 189%
RAR-ERcassette RARγ transactivation (RARγ-ERcassette; 10^-7 M): 122%
RAR-ERcassette RARγ transactivation (RARγ-ERcassette; 10^-8 M): 114%
RAR-ERcassette RARγ transactivation (RARγ-ERcassette; 10^-9 M): 86%

C/C(=C\c1cc2c(cc1C)C(C)(C)CCC2(C)C)c1ccc(C(=O)O)cc1 [CB71802]
activity at 0.01 µM [1, 5]: 45.2 ± 4.8%
activity at 0.001 µM [1, 6]: 92.5 ± 9.6%
activity at 0.0001 µM [1, 7]: 104 ± 2.3%
activity at 100 µM [3, 8]: 12.5%
activity at 1 µM [3, 9]: 86.3%
activity at 0.01 µM [3, 10]: 80.9%
effect on cellular increase, A549 (in words) [3]: inhibits the increase of these two pulmonary lineages the most strongly

C/C(=C\c1ccc2c(c1)C(C)(C)CCC2(C)C)c1ccc(C(=O)Nc2nnn[nH]2)cc1 [CB73364]
RAR-ERcassette RARβ transactivation (RARβ-ERcassette; 10^-6 M): 118%
activity at 0.01 µM [1, 5]: 10.3 ± 2.8%
activity at 0.001 µM [1, 6]: 54.9 ± 5.8%
activity at 0.0001 µM [1, 7]: 99.3 ± 7.8%
inhibition at 0.01 µM ([1]; Homo sapiens, T47D, T-47D, 10^-8 M, read-out: inhibition of colony growth): 69.7%
effect on growth of cellular colonies (in words) ([1]; T-47D): inhibit the growth of the cellular colonies
RAR-ERcassette RARα transactivation (RARα-ERcassette; 10^-6 M): 74%
activity at 100 µM [3, 8]: 0%
activity at 1 µM [3, 9]: 151%
activity at 0.01 µM [3, 10]: 156%
effect on cellular increase, A549 (in words) [3]: a stimulation of the cellular increase
RAR-ERcassette RARγ transactivation (RARγ-ERcassette; 10^-6 M): 78%

Cc1cc2c(cc1C(=O)c1ccc(C(=O)O)cc1)C(C)(C)CCC2(C)C [LGD-CB14499, reference compound]
RAR-ERcassette RARβ transactivation (RARβ-ERcassette; 10^-6 M): 130%
RAR-ERcassette RARβ transactivation (RARβ-ERcassette; 10^-7 M): 58%
RAR-ERcassette RARβ transactivation (RARβ-ERcassette; 10^-8 M): 10%
RAR-ERcassette profile (in words) [2]: transcriptional power appears higher notably through the RARβ-ERcassette
RAR-ERcassette RARα transactivation (RARα-ERcassette; 10^-6 M): 42%
RAR-ERcassette RARα transactivation (RARα-ERcassette; 10^-7 M): 12%
RAR-ERcassette RARα transactivation (RARα-ERcassette; 10^-8 M): 4%
inhibition at 0.1 µM [4]: 17 to 30%
anti-AP-1 effect (in words) ([4]; TPA-activated MTLN cells): causes an inhibition of the AP-1 route
GAL4-RAR RARβ transactivation (Gal4-RARβ; 10^-6 M): 9%
GAL4-RAR RARβ transactivation (Gal4-RARβ; 10^-7 M): 1%
GAL4-RAR RARβ transactivation (Gal4-RARβ; 10^-8 M): 0%
RAR-ERcassette RARγ transactivation (RARγ-ERcassette; 10^-6 M): 66%
RAR-ERcassette RARγ transactivation (RARγ-ERcassette; 10^-7 M): 31%
RAR-ERcassette RARγ transactivation (RARγ-ERcassette; 10^-8 M): 13%

C/C(=C\c1ccc(C(=O)O)cc1)c1ccc2c(c1)C(C)(C)CCC2(C)C [TTNPB, reference compound]
activity at 0.0001 µM ([1]; Homo sapiens, T47D): 34.1%
activity at 0.001 µM ([1]; Homo sapiens, T47D): 5.5%
activity at 0.01 µM ([1]; Homo sapiens, T47D): 2.1%
activity at 0.1 µM ([1]; Homo sapiens, T47D): 1.3%
inhibition at 0.0001 µM ([1]; Homo sapiens, T47D, read-out: inhibition of colony growth): 66%
effect on growth of cellular colonies (in words) ([1]; T-47D): more active than the product CB36493 of the cis series (Z)
effect on growth of cellular colonies (in words) ([1]; T-47D, listed as CB01570): inhibits very strongly, in a significant and dose dependent manner the growth of cellular colonies
inhibition at 0.01 µM [4]: 26 to 53%
inhibition at 0.1 µM [4]: 29 to 54%
RAR-ERcassette RARγ transactivation (RARγ-ERcassette; 10^-9 M): 66%
